These molecules were tested against T1, Keap1 (A321-C624) (h) (Homo sapiens, UniProt Q14145) (assay: Surface Plasmon Resonance binding assay to Kelch domain of KEAP1). Settings: Biacore T200, 25° C., immobilized His-Thromb-KEAP1(A321-C624), single cycle kinetics, KD=kd/ka from 1:1 fit; read-out: Keap1 (A321-C624) (h) direct/SPR (KD).
T1 construct: His-Thromb-KEAP1(A321-C624) acquired from Novalix (batch PU-P01) was immobilized covalently by amine coupling; His tag (N); thrombin cleavage site (Thromb) (N); purchased Novalix batch PU-P01
Procedure: EXAMPLE 85: SURFACE PLASMON RESONANCE
Binding assay to Kelch domain of KEAP1 was performed by Surface Plasmon Resonance (SPR) on a Biacore T200 (GE Healthcare) at 25° C. using CM5 chip. His-Thromb-KEAP1(A321-C624) acquired from Novalix (batch PU-P01) was immobilized covalently by amine coupling using standard wizard protocol, at a concentration of 20 μg/mL in sodium acetate pH 5.5. The ligand was captured until 1250 RU was reached. Amine blank is used as the reference flow cell. Binding of analyte to the ligand was monitored in real time with associations of 180 seconds and a dissociation of 720 seconds. Association (ka) and dissociation (kd) rates were fitted with a simple 1:1 kinetic interaction model using Biacore T200 Evaluation Software (GE Healthcare). The equilibrium constant (KD=kd/ka) was calculated from these fitted parameters. […] The Biacore binding assay was performed with a flowrate of 50 μL/min using a running buffer of 10 mM HEPES (pH 7.4), 150 mM NaCl, 3 mM EDTA, 1 mM TCEP, 0.05% P20,5% DMSO. Double subtraction was used by subtracting both reference flow cell and previous blank cycle (with running buffer). Solvent correction was applied to correct DMSO bulk effect.

T1 sequence (Q14145 321-624): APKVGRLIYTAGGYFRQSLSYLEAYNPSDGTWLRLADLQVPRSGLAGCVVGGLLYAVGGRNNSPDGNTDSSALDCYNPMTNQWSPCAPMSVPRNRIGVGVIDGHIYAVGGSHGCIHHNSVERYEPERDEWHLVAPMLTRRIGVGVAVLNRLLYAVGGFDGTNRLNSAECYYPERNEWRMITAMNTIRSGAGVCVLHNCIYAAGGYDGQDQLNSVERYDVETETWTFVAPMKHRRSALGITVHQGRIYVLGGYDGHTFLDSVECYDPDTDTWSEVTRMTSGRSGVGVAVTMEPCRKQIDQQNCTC

| SMILES | Kd |
| --- | --- |
| COc1cc2cc(c1Cl)CN1Cc3cc(ccc3OS1(=O)=O)OCCCCn1nnc3c(C)c(ccc31)C2CC(=O)O (single isomer, unassigned) [Example 38b, [4-Chloro-5-methoxy-31-methyl-27,27-dioxo-21,26-dioxa-27λ^6-thia-1,14,15,16-tetraazahexacyclo[20.5.3.1^3,70.1^9,130.0^12,160.0^25,29]dotriaconta-3(32),4,6,9(31),10,12,14,22,24,29-decaen-8-yl]acetic acid] | 604 nM |

What follows are molecules tested on Nrf2 (Keap1-NRF2 nuclear translocation) (assay: U2OS translocation assay (PathHunter U2OS Keap1-NRF2 Nuclear Translocation Cell Line)). Settings: Homo sapiens, U2OS, 3 h, read-out: CELLULAR U2OS EC50 (nM), U2OS Keap1-NRF2 nuclear translocation cells, 3 h incubation, luminescence, normalized between 1% DMSO and 10 μM andrographolide.
Format: cell-based
Procedure: EXAMPLE 84: U2OS—TRANSLOCATION ASSAY
U2OS cell have been stably transduced using MMLV-derived retroviral vector, to overexpress Nrf2-Enzyme Donor fusion protein, and Acceptor Enzyme in the nucleus (PathHunter® U2OS Keap1-NRF2 Nuclear Translocation Cell Line, Ref.93-0821C3, DiscoverX).
PathHunter U2OS cells were grown in Minimum Essential Medium (MEM) (Ref.30-2003, ATCC), 10% FBS (Ref.P30-193306, PanBiotech), 500 μg/ml Geneticine, 250 μg/ml hygromycine, 0.25 μg/ml puromycine (10131-027, 10687-010 and Ref.A1113802 respectively, Life Technologies).
The night before experiment, cells were harvested using Tryple Xpress (Ref.126905, Bibco) for 5 min at 37° C., resuspended in Opti-MEM™ (Ref.31985-047, Gibco), 1% FBS (Ref.P30-193306, PanBiotech) and then plated into 384 wells plates (Ref.6007680, Perkin Elmer) at the density of 7 500 cells/well in 20 μl. Cell are stored over night at 37° C., 5% CO2 until used. Compounds in 100% DMSO (0.315 μl/well) were resuspended in 20 μl MEM, 1% FBS, 3.4% DMSO. Compounds and andrographolide (10 μM final concentration; Ref.365645-500MG, Aldrich)) as positive control, were dispensed on cell, 5 μl /well, and then incubated for 3 h at 37° C. and 5% CO2. After incubation, Path hunter reagents were dispensed on cells (12 μl /well, Ref.93-0001, DiscoverX) and incubated for 60 min at room temperature in the dark.
Then, luminescence signal was measured using multimodal reader (Pherastar, BMG Labtech). Data were normalized between 1% DMSO (basal signal) and 10 μM andrographolide (positive signal) and analyzed using Activity Base software.

| SMILES | EC50 |
| --- | --- |
| COc1cc2cc(c1Cl)CN1Cc3cc(ccc3OS1(=O)=O)OCCCCn1nnc3c(C)c(ccc31)C2CC(=O)O (single isomer, unassigned) [Example 38b, [4-Chloro-5-methoxy-31-methyl-27,27-dioxo-21,26-dioxa-27λ^6-thia-1,14,15,16-tetraazahexacyclo[20.5.3.1^3,70.1^9,130.0^12,160.0^25,29]dotriaconta-3(32),4,6,9(31),10,12,14,22,24,29-decaen-8-yl]acetic acid] | > 3160 nM |
| Cc1ccc2cc1[C@@H](C)N1Cc3cc(ccc3OS1(=O)=O)OC[C@@H](O)CCn1nnc3c(C)c(ccc31)[C@H]2CC(=O)O [Example 46a, [(2R,8RS,19S)-19-Hydroxy-2,4,31-trimethyl-27,27-dioxo-21,26-dioxa-27λ^6-thia-1,14,15,16-tetraazahexacyclo[20.5.3.1^3,70.1^9,130.0^12,160.0^25,29]dotriaconta-3(32),4,6,9(31),10,12,14,22,24,29-decaen-8-yl]acetic acid] | 228 nM |
| COc1cc2cc(c1Cl)CN1Cc3cc(ccc3OS1(=O)=O)OCCCCn1nnc3c(C)c(ccc31)C2CC(=O)O (stereo not drawn) [Example 38a, [4-Chloro-5-methoxy-31-methyl-27,27-dioxo-21,26-dioxa-27λ^6-thia-1,14,15,16-tetraazahexacyclo[20.5.3.1^3,70.1^9,130.0^12,160.0^25,29]dotriaconta-3(32),4,6,9(31),10,12,14,22,24,29-decaen-8-yl]acetic acid] | 2080 nM |
| Cc1ccc2cc1[C@@H](C)N1Cc3cc(cc(C)c3OS1(=O)=O)OCCCCn1nnc3c(C)c(ccc31)[C@@H]2CC(=O)O [Example 29a, [(2R,8R)-2,4,24,31-Tetramethyl-27,27-dioxo-21,26-dioxa-27λ^6-thia-1,14,15,16-tetraazahexacyclo[20.5.3.1^3,70.1^9,130.0^12,160.0^25,29]dotriaconta-3(32),4,6,9(31),10,12,14,22,24,29-decaen-8-yl]acetic acid] | 440 nM |
| COc1ccc2cc1[C@@H](C)N1Cc3cc(ccc3OS1(=O)=O)OCCCCCn1nnc3c(C)c(ccc31)[C@@H]2CC(=O)O [Example 31d, [(2R,8R)-4-methoxy-2,32-dimethyl-28,28-dioxo-22,27-dioxa-28λ^6-thia-1,14,15,16-tetraazahexacyclo[21.5.3.1^3,70.1^9,130.0^12,160.0^26,30]tritriaconta-3(33),4,6,9(32),10,12,14,23,25,30-decaen-8-yl]acetic acid] | 326 nM |
| Cc1ccc2cc1CN1Cc3cc(ccc3OS1(=O)=O)OCc1ccccc1CCn1nnc3c(C)c(ccc31)C2CC(=O)O (stereo not drawn) [Example 62b, [4,36-Dimethyl-32,32-dioxo-26,31-dioxa-32λ^6-thia-1,14,15,16-tetraazaheptacyclo[25.5.3.1^3,70.1^9,130.0^12,160.0^19,240.0^30,34]heptatriaconta-3(37),4,6,9(36),10,12,14,19,21,23,27,29,34-tridecaen-8-yl]acetic acid] | > 3160 nM |
| Cc1ccc2cc1[C@@H](C)N1Cc3cc(ccc3OS1(=O)=O)OC[C@@H](O)CCn1nnc3c(C)c(ccc31)[C@@H]2CC(=O)O [Example 46b, [(2R,8RS,19S)-19-hydroxy-2,4,31-trimethyl-27,27-dioxo-21,26-dioxa-27λ^6-thia-1,14,15,16-tetraazahexacyclo[20.5.3.1^3,70.1^9,130.0^12,160.0^25,29]dotriaconta-3(32),4,6,9(31),10,12,14,22,24,29-decaen-8-yl]acetic acid] | 792 nM |

Same assay, conditions: read-out: CELLULAR U2OS EC50; U2OS Keap1-NRF2 nuclear translocation cells, 3 h incubation, luminescence, normalized between 1% DMSO and 10 μM andrographolide

| SMILES | EC50 |
| --- | --- |
| Cc1ccc2cc1CN1Cc3cc(ccc3OS1(=O)=O)OCC1CCN(CC1)CCn1nnc3c(C)c(ccc31)C2CC(=O)O (single isomer, unassigned) [Example 60a, [4,36-Dimethyl-30,30-dioxo-24,29-dioxa-30λ^6-thia-1,14,15,16,19-pentaazaheptacyclo[23.5.3.2^19,220.1^3,70.1^9,130.0^12,160.0^28,32]heptatriaconta-3(37),4,6,9(36),10,12,14,25,27,32-decaen-8-yl]acetic acid] | 265 nM |
| Cc1ccc2cc1CN1Cc3cc(ccc3OS1(=O)=O)OCCCCn1nnc3c(C)c(ccc31)C2C(C)(C)C(=O)O (single isomer, unassigned) [Example 74b, 2-[4,31-Dimethyl-27,27-dioxo-21,26-dioxa-27λ^6-thia-1,14,15,16-tetraazahexacyclo[20.5.3.1^3,70.1^9,130.0^12,160.0^25,29]dotriaconta-3(32),4,6,9(31),10,12,14,22,24,29-decaen-8-yl]-2-methylpropanoic acid] | 756 nM |
| Cc1ccc2cc1CN1Cc3cc(ccc3OS1(=O)=O)OCCCCn1nnc3c(C)c(ccc31)C2C(C)(C)C(=O)Nc1cncnc1 (single isomer, unassigned) [Example 81b, 2-[4,31-Dimethyl-27,27-dioxido-21,26-dioxa-27-thia-1,14,15,16-tetraazahexacyclo[20.5.3.1^3,70.1^9,130.0^12,160.0^25,29]dotriaconta-3(32),4,6,9(31),10,12,14,22,24,29-decaen-8-yl]-2-methyl-N-(pyrimidin-5-yl)propanamide] | > 3160 nM |
| COc1cc2cc(c1C)CN1Cc3cc(ccc3OS1(=O)=O)OCCCCn1nnc3c(C)c(ccc31)C2CC(=O)O (single isomer, unassigned) [Example 30b, [5-Methoxy-4,31-dimethyl-27,27-dioxo-21,26-dioxa-27λ^6-thia-1,14,15,16-tetraazahexacyclo[20.5.3.1^3,70.1^9,130.0^12,160.0^25,29]dotriaconta-3(32),4,6,9(31),10,12,14,22,24,29-decaen-8-yl]acetic acid] | 2360 nM |
| Cc1ccc2cc1CN1Cc3cc(ccc3OS1(=O)=O)OCc1ccccc1/C=C/n1nnc3c(C)c(ccc31)C2CC(=O)O (single isomer, unassigned) [Example 61b, [(17E)-4,36-dimethyl-32,32-dioxo-26,31-dioxa-32λ^6-thia-1,14,15,16-tetraazaheptacyclo[25.5.3.1^3,70.1^9,130.0^12,160.0^19,240.0^30,34]heptatriaconta-3(37),4,6,9(36),10,12,14,17,19,21,23,27,29,34-tetradecaen-8-yl]acetic acid] | > 3160 nM |
| Cc1ccc2cc1CN1Cc3cc(ccc3OS1(=O)=O)OCc1ccccc1/C=C/n1nnc3c(C)c(ccc31)C2CC(=O)O (single isomer, unassigned) [Example 61a, [(17E)-4,36-dimethyl-32,32-dioxo-26,31-dioxa-32λ^6-thia-1,14,15,16-tetraazaheptacyclo[25.5.3.1^3,70.1^9,130.0^12,160.0^19,240.0^30,34]heptatriaconta-3(37),4,6,9(36),10,12,14,17,19,21,23,27,29,34-tetradecaen-8-yl]acetic acid] | 717 nM |
| Cc1ccc2cc1CN1Cc3cc(ccc3OS1(=O)=O)OCCOCCn1nnc3c(C)c(ccc31)C2CC(=O)O (single isomer, unassigned) [Example 78a, [4,32-Dimethyl-28,28-dioxo-19,22,27-trioxa-28λ^6-thia-1,14,15,16-tetraazahexacyclo[21.5.3.1^3,70.1^9,130.0^12,160.0^26,30]tritriaconta-3(33),4,6,9(32),10,12,14,23,25,30-decaen-8-yl]acetic acid] | 69 nM |

— patent US12643912B2, “Macrocyclic compounds, a process for their preparation and pharmaceutical compositions containing them” (LES LABORATOIRES SERVIER, priority 2020, dated 2026)
